Columns and labels:
[1] = tested on: JEV (P3 strain); test: CPE-based EC50 assay, JEV-infected BHK-21 cells; assay type: cell-based, Japanese encephalitis virus; conditions: for EC50: Japanese encephalitis virus, BHK-21, 120 h; for selectivity index: from CC50 and EC50 in BHK-21 cells
Method: (§1) Cell viability was evaluated by Celltiter-Glo Luminescent Cell Viability Assay reagent (Promega, Madison, WI, USA) following the manufacturer's protocol. An equal volume of Celltiter-Glo reagents was added to the cells in 96-well white plates (Corning, Tewksbury, MA, USA) and mixed for 2 min on an orbital shaker and incubated for a further 10 min at room temperature. The luminescence of each well was measured by a 1450 MicroBeta TriLux (Perkin Elmer, Waltham, MA, USA). Percentage of cell viability was calculated as follows: Percentage of cell viability = 100× (luminescence of experimental group/luminescence of control group).
BHK-21 cells were seeded onto 96-well plates at 10,000 cells per well. After 12 h incubation, the culture supernatant was replaced with maintenance medium. One microliter of each compound was added to 99 µL maintenance medium in the first well, followed by twofold serial dilutions for two wells. After full mixing in the third well, 50 µL medium was discarded. Then, 50 µL maintenance medium containing 0.02 MOI JEV was added to each well. The plates were subjected to 30 s horizontal shaking to achieve thorough mixing. Three wells of mock-infected cells as well as three wells of JEV-infected cells containing 1% DMSO were set on each plate as controls. After 120 h incubation, the percentage of CPE inhibition was calculated as previously described: Percentage of inhibition = (luminescence of experimental group – average luminescence of virus control) / (average luminescence of cell control – average luminescence of virus control) ×100.
BHK-21 cells were seeded in 96-well white plates at 10,000 cells per well. Twelve hours later, the growth medium was replaced with maintenance medium containing 0.01 MOI JEV as well as different concentrations of compounds. Cell incubation was continued for 120 h, and the percentage of inhibition was measured as described above. The EC50 values were calculated by nonlinear regression analysis.

[2] = tested on: JEV; test: Plaque reduction assay; assay type: cell-based, Japanese encephalitis virus
Method: BHK-21 cells were plated in 96-well plates at a density of 10,000 cells per well and grown for 12 h for cell attachment. The cells were infected with JEV at MOI 0.01 in the presence of different concentrations (20, 15, 10, and 5 µM) of compounds. Each concentration was assayed in triplicate. Forty-eight hours post-infection, the viruses in each group were harvested by freezing/thawing three times and mixed in a tube. Then, 50 µL virus suspension was inoculated into BHK-21 cells in 12-well plates for the plaque assay, as previously described.

[3] = cited from earlier work
[4] = tested on: JEV; test: Indirect immunofluorescence assay (IFA, anti-NS5) in infected BHK-21 cells; assay type: cell-based, Japanese encephalitis virus; conditions: MOI 0.01, 48 h post-infection; for JEV-negative cells: 5 µM compound; for JEV replication / JEV-positive cells (IFA): 20 µM compound
Method: BHK-21 cells were seeded in 12-well plates and inoculated with JEV at MOI 0.01 after 12 h incubation. The compounds were added to cells at concentrations of 5 or 20 µM. After incubation for a further 48 h, virus replication in the cells was evaluated by IFA. The cells were fixed in formaldehyde for 5 min and were incubated with anti-NS5 Mab (1∶500) and then FITC-conjugated goat anti-mouse antibody (Boster) for 30 min respectively. Finally, the cells were stained with DAPI (Sigma-Aldrich) and imaged by a fluorescence microscope (Olympus IX70; Olympus, Tokyo, Japan).

[5] = tested on: JEV; test: Western blotting of JEV envelope (E) protein expression in infected BHK-21 cells; assay type: cell-based, Japanese encephalitis virus; conditions: MOI 0.01, 48 h, normalized to GAPDH
Method: BHK-21 cells in 12-well plates were infected with JEV at MOI 0.01. The compounds were then added to cells at final concentrations of 10 and 20 µM. After incubation for 48 h, expression of JEV envelope (E) protein was detected by western blotting. The cells were collected after trypsin digestion and washed in PBS. The cell suspension was mixed with an equal volume of 2×SDS sample buffer. The proteins were electrophoresed in 12% SDS-PAGE and transferred to a nitrocellulose filter membrane (Millipore, Darmstadt, Germany). Western blotting was performed with JEV E protein-specific monoclonal antibody (Mab; 1∶500, constructed in our laboratory) or GAPDH-specific Mab (1∶1000; Proteintech, Chicago, IL, USA) as the primary antibodies, followed by addition of horseradish-peroxidase-conjugated goat anti-mouse IgG (Boster, Wuhan, China) as the secondary antibody. Finally, the protein blots were detected with SuperSignal West Pico Chemiluminescent Substrate (Thermo Scientific, Rockford, IL, USA) and imaged by a MF-ChemiBIS 3.2 (DNR Bio-Imaging Systems, Mahale Hahamisha, Israel). The expression of E and GAPDH was quantified by gray-value analysis using software ImageJ. The expression of E protein was normalized by the expression of GAPDH and the changes of E expression were calculated by comparing to the non-compound treated group.

[6] = Cytotoxicity of compounds (Celltiter-Glo cell viability); assay type: cell-based; conditions: hamster; BHK-21 cells, 120 h incubation; read-out: CC50 (50% cytotoxicity concentration)
Method: as §1
BHK-21 cells were seeded in 96-well white plates at 10,000 cells per well. After 12 h incubation for cell attachment, different concentrations of compounds were added to the cells. Cell viability was tested as described above after 120 h incubation. The 50% cytotoxicity concentration (CC50) was calculated by nonlinear regression analysis.

[7] = cited from earlier work; remark: listed apart in the source

Row | SMILES | EC50 [1] | selectivity index [1] | replication of JEV ([2]; 20 or 15 µM compound) | MLD50 [3] | JEV-negative cells [4] | JEV replication / JEV-positive cells (IFA) [4] | E expression decrease (gray-value analysis) ([5]; 10 µM compound) | E expression decrease (gray-value analysis) ([5]; 20 µM compound) | CC50 at 120 h [6] | number of plaques ([2]; 10 µM compound, 48 h, MOI 0.01) | virus titer ([2]; 10 µM compound, 48 h, MOI 0.01, untreated 2.7×10^6 PFU/mL) | ability to enter the brain [7]
1 | COCCOC(=O)C1=C(C)NC(C)=C(C(=O)OC/C=C/c2ccccc2)C1c1cccc([N+](=O)[O-])c1 (centres unmarked) [cilnidipine] | 6.52 µM | 30.67 | almost completely inhibited | > 5000 mg/kg | ~60% | Absolute inhibition of JEV replication | ~56% | ~75% | > 200 µM |  |  | 
2 | O=C(Nc1ccc([N+](=O)[O-])cc1Cl)c1cc(Cl)ccc1O [niclosamide] | 5.8 µM | 7.49 |  |  | ~30% | few cells were JEV-positive | about 85% |  | 43.3 µM |  |  | 
3 | CCCCCCN(CCCCCC)C(=O)Cc1c(-c2ccc(F)cc2)[nH]c2ccccc12 [FGIN-1-27, N,N-dihexyl-2-(4-fluorophenyl)indole-3-acetamide] | 3.21 µM | 38.79 |  |  | about 80% | few cells were JEV-positive |  |  | 124 µM | < 20 | < 400 PFU/mL | had the ability to enter the brain
